Source: patent US20230015691A1, “PROPHYLACTIC OR THERAPEUTIC AGENT FOR NON-ALCOHOLIC STEATOHEPATITIS IN HUMANS” (MITSUBISHI TANABE PHARMA CORPORATION, priority 2019, published 2023)

What was measured:
[1] = Body weight change in NASH patients (clinical trial, 72 weeks); assay type: in vivo, human; details: 10 mg once daily; for Change from baseline/Weight, Mean (SD): NASH patients
Procedure: (§1) [Test Protocol] • Number of cases to be analyzed: 47 cases (placebo administration group: 23 cases; MT-3995 administration group: 24 cases) • The subjects were selected according to the following criteria.
Kleiner fibrosis classification: Stage 2 or Stage 3
(§2) • Pre-observation period (number of weeks): 10 weeks • Administration period (number of weeks): 72 weeks • Post-observation period (number of weeks): 8 weeks • Dosage and administration: MT-3995 administration group=once daily, 10 mg; placebo group=once-daily administration
Table 2 and FIG. 1 show the average amount of change in the body weight after the assignment, in the placebo group and the MT-3995 group. The body weight was measured at the time of the visit.

[2] = system: serum hyaluronic acid (HA); assay: Change in serum hyaluronic acid level (Chemilumi Hyaluronic Acid); assay type: in vivo, human; details: for Change from baseline/Hyaluronic Acid, LS Mean: serum, NASH patients, 10 mg once daily
Procedure: as §1, §2
Table 3 and FIG. 2 show the average amount of change in the serum hyaluronic acid level after the assignment. For measurement of the serum hyaluronic acid level, serum was prepared from blood collected from each patient on the day of the visit, according to a conventional method. The prepared serum was subjected to a test. For the measurement, Chemilumi Hyaluronic Acid (Siemens Healthcare Diagnostics K. K.) was used.

serum TIMP-1 = assay: Change in serum TIMP-1 level (ADVIA Centaur TIMP-1 assay); assay type: in vivo, human; details: for Change from baseline/TIMP-1, LS Mean: serum, NASH patients, 10 mg once daily
Procedure: as §1, §2
Table 5 and FIG. 4 show the average amount of change in the serum TIMP-1 level after the assignment. For measurement of the serum TIMP-1 level, serum was prepared from blood collected from each patient, according to a conventional method. The prepared serum was subjected to a test. For the measurement, ADVIA Centaur (registered trademark) TIMP-1 assay (Siemens Healthcare Diagnostics K. K.) was used.

[3] = system: plasma-soluble Vascular Cell Adhesion Molecule-1 (sVCAM); assay: Change in plasma sVCAM-1 level (Human sVCAM-1/CD106 Quantikine ELISA Kit); assay type: in vivo; details: for Change from baseline/sVCAM-1, Mean: plasma, 10 mg once daily
Procedure: as §1, §2
Table 6-1 and FIG. 5-1 show the average amount of change in the plasma-soluble Vascular Cell Adhesion Molecule-1 (sVCAM) after the assignment. For measurement of the plasma sVCAM level, plasma was prepared from blood collected from each patient, according to a conventional method. The prepared plasma was subjected to a test. For the measurement, a Human sVCAM-1/CD106 Quantikine ELISA Kit (R&D Systems, Inc.) was used.
A stratified analysis was carried out for the subjects based on the presence or absence of complication with diabetes. DM represents the “group of patients complicated with diabetes”. A higher effect was found in the group of patients complicated with diabetes.
Further, a stratified analysis was carried out for the subjects based on the presence or absence of complication with hypertension. HP represents the “group of patients complicated with hypertension”. A higher effect was found in the group of patients complicated with hypertension.

liver stiffness [4] = assay: Change in liver stiffness (Shear Wave Elastography); assay type: in vivo, human; details: for Change from baseline/Liver stiffness (Shear Wave Elastography), Mean (SD): NASH patients, 10 mg once daily
Procedure: as §1, §2
(§3) The liver stiffness after the assignment was measured using Shear Wave Elastography or Fibro scan. Table 7 and FIG. 6 show the average amount of change in the liver stiffness according to Shear Wave Elastography. Table 8 and FIG. 7 show the average amount of change in the liver stiffness according to Fibro scan.

liver stiffness [5] = assay: Change in liver stiffness (Fibro scan); assay type: in vivo, human; details: for Change from baseline/Liver stiffness (Fibro scan), Mean: NASH patients, 10 mg once daily
Procedure: as §1, §2, §3

[6] = system: non-alcoholic steatohepatitis (NASH) model rats; details: Patent Document 1; cited from earlier work

## CC1(C)Oc2cc(NS(C)(=O)=O)ccc2N(c2ccc(F)cc2)C1=O [MT-3995]
[1]; 72 weeks
  Rate of body weight reduction versus placebo group: higher in the MT-3995 administration group than in the placebo group
[1]; Week 12
  Change from baseline/Weight, Mean (SD): −1.39 (1.55) kg
[1]; Week 24
  Change from baseline/Weight, Mean (SD): −1.73 (2.09) kg
[1]; Week 36
  Change from baseline/Weight, Mean (SD): −1.88 (2.99) kg
[1]; Week 48
  Change from baseline/Weight, Mean (SD): −2.15 (3.23) kg
[1]; Week 60
  Change from baseline/Weight, Mean (SD): −2.23 (3.25) kg
[1]; Week 72
  Change from baseline/Weight, Mean (SD): −2.21 (3.10) kg
[1]; from the beginning of the administration
  Body weight change: A decrease in the body weight was found
[2]; Weeks 24, 48, and 72 after the beginning of the administration
  Serum hyaluronic acid level versus placebo group: significantly lower than the level in the placebo group
[2]; Week 12
  Change from baseline/Hyaluronic Acid, LS Mean: -31.87 ng/mL
[2]; Week 24
  Change from baseline/Hyaluronic Acid, LS Mean: -39.02 ng/mL
[2]; Week 48
  Change from baseline/Hyaluronic Acid, LS Mean: -47.23 ng/mL
[2]; Week 72
  Change from baseline/Hyaluronic Acid, LS Mean: -32.02 ng/mL
[2]; throughout the treatment period
  Serum hyaluronic acid level versus beginning of the administration: lower than the level observed at the beginning of the administration
Serum TIMP-1; from Week 24 after the beginning of the treatment
  Serum TIMP-1 values versus beginning of the administration: lower than the value observed at the beginning of the administration
Serum TIMP-1; Week 12
  Change from baseline/TIMP-1, LS Mean: 2.4 ng/mL
Serum TIMP-1; Week 24
  Change from baseline/TIMP-1, LS Mean: -7.2 ng/mL
Serum TIMP-1; Week 48
  Change from baseline/TIMP-1, LS Mean: -22.4 ng/mL
Serum TIMP-1; Week 72
  Change from baseline/TIMP-1, LS Mean: -25.8 ng/mL
Serum TIMP-1; throughout the period of the clinical trial
  Serum TIMP-1 values versus placebo group: lower than the values in the Placebo group
[3]; Week 24, Week 48, and Week 72
  Plasma sVCAM value versus placebo group: lower than the value in the placebo group
[3]; from Week 24 after the beginning of the administration
  Plasma sVCAM values versus beginning of the administration: lower plasma sVCAM values
[3]; DM (patients complicated with diabetes), Week 12
  Change from baseline/sVCAM-1, Mean: -6.58 ng/mL
[3]; DM (patients complicated with diabetes), Week 24
  Change from baseline/sVCAM-1, Mean: -47.08 ng/mL
[3]; DM (patients complicated with diabetes), Week 48
  Change from baseline/sVCAM-1, Mean: -62.73 ng/mL
[3]; DM (patients complicated with diabetes), Week 72
  Change from baseline/sVCAM-1, Mean: -112.27 ng/mL
[3]; HP (patients complicated with hypertension), Week 12
  Change from baseline/sVCAM-1, Mean: 5.69 ng/mL
[3]; HP (patients complicated with hypertension), Week 24
  Change from baseline/sVCAM-1, Mean: -44.06 ng/mL
[3]; HP (patients complicated with hypertension), Week 48
  Change from baseline/sVCAM-1, Mean: -70.29 ng/mL
[3]; HP (patients complicated with hypertension), Week 72
  Change from baseline/sVCAM-1, Mean: -89.57 ng/mL
[3]; all NASH patients, Week 12
  Change from baseline/sVCAM-1, Mean: 13.8 ng/mL
[3]; all NASH patients, Week 24
  Change from baseline/sVCAM-1, Mean: -43.8 ng/mL
[3]; all NASH patients, Week 48
  Change from baseline/sVCAM-1, Mean: -44.7 ng/mL
[3]; all NASH patients, Week 72
  Change from baseline/sVCAM-1, Mean: -74.7 ng/mL
[3]; non-DM patients, Week 12
  Change from baseline/sVCAM-1, Mean: 34.25 ng/mL
[3]; non-DM patients, Week 24
  Change from baseline/sVCAM-1, Mean: -40.58 ng/mL
[3]; non-DM patients, Week 48
  Change from baseline/sVCAM-1, Mean: -26.64 ng/mL
[3]; non-DM patients, Week 72
  Change from baseline/sVCAM-1, Mean: -37.18 ng/mL
[3]; non-HP patients, Week 12
  Change from baseline/sVCAM-1, Mean: 30.13 ng/mL
[3]; non-HP patients, Week 24
  Change from baseline/sVCAM-1, Mean: -43.38 ng/mL
[3]; non-HP patients, Week 48
  Change from baseline/sVCAM-1, Mean: 0.13 ng/mL
[3]; non-HP patients, Week 72
  Change from baseline/sVCAM-1, Mean: -48.75 ng/mL
Liver stiffness [4]; Week 12
  Change from baseline/Liver stiffness (Shear Wave Elastography), Mean (SD): −4.57 (2.48) kPa
Liver stiffness [4]; Week 24
  Change from baseline/Liver stiffness (Shear Wave Elastography), Mean (SD): −5.63 (3.23) kPa
Liver stiffness [4]; Week 48
  Change from baseline/Liver stiffness (Shear Wave Elastography), Mean (SD): −4.90 (4.38) kPa
Liver stiffness [4]; Week 72
  Change from baseline/Liver stiffness (Shear Wave Elastography), Mean (SD): −6.00 (5.23) kPa
Liver stiffness [4]; Shear Wave Elastography, throughout the treatment period
  Liver stiffness versus beginning of the administration: lower than the value observed at the beginning of the administration
Liver stiffness [5]; Fibro scan, throughout the treatment period
  Liver stiffness versus beginning of the administration: lower than the value observed at the beginning of the administration
Liver stiffness [5]; Week 12
  Change from baseline/Liver stiffness (Fibro scan), Mean: −0.49 kPa
Liver stiffness [5]; Week 24
  Change from baseline/Liver stiffness (Fibro scan), Mean: 0.30 kPa
Liver stiffness [5]; Week 48
  Change from baseline/Liver stiffness (Fibro scan), Mean: −1.05 kPa
Liver stiffness [5]; Week 72
  Change from baseline/Liver stiffness (Fibro scan), Mean: −1.41 kPa
[6]
  Effectiveness based on Sirius Red-positive area and fibrosis score: effectiveness
